Molecular target: VR1 (Rattus norvegicus, UniProt O35433)
Experiment: Calcium imaging assay: inhibition of capsaicin induced calcium influx in DRG neurons (Fura2, microscope)
Assay type: cell-based
Parameters: endogenous in cells; host or cells: DRG neurons
Details: capsaicin stimulation; class symbols per legend
Method: VR1 protein is a heat-gated cation channel that […] resulting in neuronal membrane depolarization and elevated intracellular calcium levels. Therefore the functional activity of compounds at the VR1 receptor may be determined by measuring changes in intracellular calcium levels in neurons such as the dorsal root ganglion.
DRG neurons were grown on PDL coated 96-well black-walled plates, in the presence of DMEM medium containing 5% Penstrep, 5% Glutamax, 200 μg/ml hygromycin, 5 μg/ml blasticide and 10% heat inactivated FBS. Prior to assay, cells were loaded with 5 μg/ml Fura2 in normal saline solution at 37° C for 40 minutes. Cells were then washed with normal saline to remove dye before commencement of the experiment.
The plated neurons were transferred into a chamber on the stage of a Nikon eclipse TE300 microscope after which neurons were allowed to attain a stable fluorescence for about 10 minutes before beginning the experiment. The assay consists of two stages, a pretreatment phase followed by a treatment phase. First, a solution of the test compound was added from a multivalve perfusion system to the cells for 1 minute (pretreatment). Immediately following, capsaicin (250 nM) was added in the presence of the test compound (treatment) for a specific period between 20 and 60 seconds.
Fura2 was excited at […] to indicate relative calcium ion concentration. Changes in wavelength measurements were made throughout the course of the experiment. The fluorescence ratio was calculated by dividing fluorescence measured at 340 nm by that at 380 nM. Data was collected using Intelligent Imaging’s Slidebook software. All compounds that inhibited capsaicin induced calcium influx greater than 75% were considered positives.
Fluorescence reflecting calcium ion influx is reduced.

Chain of VR1 (O35433 whole entry): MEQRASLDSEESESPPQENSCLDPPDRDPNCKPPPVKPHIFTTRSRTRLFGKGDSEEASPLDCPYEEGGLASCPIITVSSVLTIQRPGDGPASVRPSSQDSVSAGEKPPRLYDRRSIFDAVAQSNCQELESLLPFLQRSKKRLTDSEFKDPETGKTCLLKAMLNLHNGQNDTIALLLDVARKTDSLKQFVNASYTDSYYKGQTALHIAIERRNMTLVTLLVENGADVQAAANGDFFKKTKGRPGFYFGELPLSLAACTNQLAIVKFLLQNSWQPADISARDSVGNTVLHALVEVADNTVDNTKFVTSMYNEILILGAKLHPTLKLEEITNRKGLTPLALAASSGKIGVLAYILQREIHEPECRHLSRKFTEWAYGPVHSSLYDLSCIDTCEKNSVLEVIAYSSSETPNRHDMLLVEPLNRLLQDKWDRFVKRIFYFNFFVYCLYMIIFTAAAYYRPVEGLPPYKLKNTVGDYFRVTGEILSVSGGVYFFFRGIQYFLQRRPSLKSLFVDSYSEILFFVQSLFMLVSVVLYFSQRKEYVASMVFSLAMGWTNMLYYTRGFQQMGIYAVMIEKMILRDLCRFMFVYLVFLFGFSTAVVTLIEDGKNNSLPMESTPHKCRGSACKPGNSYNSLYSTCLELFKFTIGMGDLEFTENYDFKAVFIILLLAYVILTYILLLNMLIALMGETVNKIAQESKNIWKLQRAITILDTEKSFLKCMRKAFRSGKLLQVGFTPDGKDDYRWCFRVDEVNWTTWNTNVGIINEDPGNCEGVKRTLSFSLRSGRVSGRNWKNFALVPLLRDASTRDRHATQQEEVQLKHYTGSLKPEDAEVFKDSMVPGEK

SMILES | inhibition of calcium ion influx induced by capsaicin stimulation
C/C(=C\C(C)(C)C)c1ccc(C(=O)Nc2ncc(C(F)(F)F)cc2Cl)cc1 [Compound 345] | + (compound exhibited 0-25% inhibition of calcium ion influx induced by capsaicin stimulation)
C/C(=C\C(C)(C)C)c1ccc(C(=O)NCCc2cnc[nH]2)cc1 [Compound 356] | + (compound exhibited 0-25% inhibition of calcium ion influx induced by capsaicin stimulation)
C/C(=C\C(C)(C)C)c1ccc(C(=O)NCc2cccnc2)cc1 [Compound 357] | + (compound exhibited 0-25% inhibition of calcium ion influx induced by capsaicin stimulation)
C/C(=C/C(C)(C)C)c1ccc(C(=O)Nc2ccc3ccccc3c2)cc1 [Compound 358] | ++++ (compound exhibited 75% or greater inhibition of calcium ion influx induced by capsaicin stimulation)
CC(C)(C)C#Cc1ccc(C(=O)Nc2ccc3c(c2)OCO3)cc1 [Compound 361] | ++++ (compound exhibited 75% or greater inhibition of calcium ion influx induced by capsaicin stimulation)
CCN(CC)CCOC(=O)c1ccc(NC(=O)c2ccc(C#CC(C)(C)C)cc2)cc1 [Compound 363] | +++ (compound exhibited 50-75% inhibition of calcium ion influx induced by capsaicin stimulation)
COc1cccc(NC(=O)c2ccc(C#CC(C)(C)C)cc2)c1 [Compound 364] | ++++ (compound exhibited 75% or greater inhibition of calcium ion influx induced by capsaicin stimulation)
CC(C)(C)C#Cc1ccc(C(=O)Nc2ccc(Cl)cc2)cc1 [Compound 365] | + (compound exhibited 0-25% inhibition of calcium ion influx induced by capsaicin stimulation)
COc1ccc(NC(=O)c2ccc(C#CC(C)(C)C)cc2)cc1Cl [Compound 366] | ++ (compound exhibited 25-50% inhibition of calcium ion influx induced by capsaicin stimulation)
CC(C)(C)C#Cc1ccc(C(=O)Nc2ccc(C(F)(F)F)cc2)cc1 [Compound 367] | ++ (compound exhibited 25-50% inhibition of calcium ion influx induced by capsaicin stimulation)
CC(C)(C)C#Cc1ccc(C(=O)Nc2ccc(Cl)c(C(F)(F)F)c2)cc1 [Compound 368] | ++++ (compound exhibited 75% or greater inhibition of calcium ion influx induced by capsaicin stimulation)
COc1cc(NC(=O)c2ccc(C#CC(C)(C)C)cc2)cc(C(F)(F)F)c1 [Compound 372] | ++++ (compound exhibited 75% or greater inhibition of calcium ion influx induced by capsaicin stimulation)
CC(C)(C)C#Cc1ccc(C(=O)Nc2ccc3c(c2)OCCO3)cc1 [Compound 373] | ++++ (compound exhibited 75% or greater inhibition of calcium ion influx induced by capsaicin stimulation)
CC(C)(C)C#Cc1ccc(C(=O)Nc2cccc(C(F)(F)F)c2)cc1 [Compound 374] | ++++ (compound exhibited 75% or greater inhibition of calcium ion influx induced by capsaicin stimulation)
CC(C)Oc1cccc(NC(=O)c2ccc(C#CC(C)(C)C)cc2)c1 [Compound 376] | +++ (compound exhibited 50-75% inhibition of calcium ion influx induced by capsaicin stimulation)
CC(C)(C)C#Cc1ccc(C(=O)Nc2ccc(S(C)(=O)=O)cc2)cc1 [Compound 377] | ++++ (compound exhibited 75% or greater inhibition of calcium ion influx induced by capsaicin stimulation)
CC(C)(C)C#Cc1ccc(C(=O)Nc2cccc3cnccc23)cc1 [Compound 378] | ++++ (compound exhibited 75% or greater inhibition of calcium ion influx induced by capsaicin stimulation)
CC(C)(C)C#Cc1ccc(C(=O)Nc2cnc3ccccc3c2)cc1 [Compound 379] | ++++ (compound exhibited 75% or greater inhibition of calcium ion influx induced by capsaicin stimulation)
CCN(CC)c1ccc(NC(=O)c2ccc(C#CC(C)(C)C)cc2)cc1 [Compound 380] | ++ (compound exhibited 25-50% inhibition of calcium ion influx induced by capsaicin stimulation)
CC(C)(C)C#Cc1ccc(C(=O)Nc2ccc(Br)cn2)cc1 [Compound 382] | ++ (compound exhibited 25-50% inhibition of calcium ion influx induced by capsaicin stimulation)

SMILES | inhibition of calcium ion influx induced by capsaicin stimulation
CC(C)(C)C#Cc1ccc(C(=O)Nc2ccc(C(F)(F)F)cn2)cc1 [Compound 383] | +++ (compound exhibited 50-75% inhibition of calcium ion influx induced by capsaicin stimulation)
CC(C)(C)C#Cc1ccc(C(=O)Nc2ccc(Cl)nc2)cc1 [Compound 384] | ++++ (compound exhibited 75% or greater inhibition of calcium ion influx induced by capsaicin stimulation)
COc1ccc(NC(=O)c2ccc(C#CC(C)(C)C)cc2)cn1 [Compound 385] | ++++ (compound exhibited 75% or greater inhibition of calcium ion influx induced by capsaicin stimulation)
Cn1ccc2cc(NC(=O)c3ccc(C#CC(C)(C)C)cc3)ccc21 [Compound 387] | ++++ (compound exhibited 75% or greater inhibition of calcium ion influx induced by capsaicin stimulation)
COc1cccc(NC(=O)c2ccc(/C=C/C(F)(F)F)cc2)c1 [Compound 389] | ++++ (compound exhibited 75% or greater inhibition of calcium ion influx induced by capsaicin stimulation)
O=C(Nc1ccc(Cl)cc1)c1ccc(/C=C/C(F)(F)F)cc1 [Compound 390] | ++ (compound exhibited 25-50% inhibition of calcium ion influx induced by capsaicin stimulation)
COc1ccc(NC(=O)c2ccc(/C=C/C(F)(F)F)cc2)cc1Cl [Compound 391] | + (compound exhibited 0-25% inhibition of calcium ion influx induced by capsaicin stimulation)
O=C(Nc1ccc(C(F)(F)F)cc1)c1ccc(/C=C/C(F)(F)F)cc1 [Compound 392] | + (compound exhibited 0-25% inhibition of calcium ion influx induced by capsaicin stimulation)
CC(C)c1ccc(NC(=O)c2ccc(/C=C/C(F)(F)F)cc2)cc1 [Compound 394] | ++ (compound exhibited 25-50% inhibition of calcium ion influx induced by capsaicin stimulation)
CCCCc1ccc(NC(=O)c2ccc(/C=C/C(F)(F)F)cc2)cc1 [Compound 395] | + (compound exhibited 0-25% inhibition of calcium ion influx induced by capsaicin stimulation)
O=C(Nc1ccc2c(c1)OCCO2)c1ccc(/C=C/C(F)(F)F)cc1 [Compound 397] | +++ (compound exhibited 50-75% inhibition of calcium ion influx induced by capsaicin stimulation)
O=C(Nc1cccc(C(F)(F)F)c1)c1ccc(/C=C/C(F)(F)F)cc1 [Compound 398] | ++++ (compound exhibited 75% or greater inhibition of calcium ion influx induced by capsaicin stimulation)
O=C(Nc1ccc(OC(F)(F)F)cc1)c1ccc(/C=C/C(F)(F)F)cc1 [Compound 399] | ++++ (compound exhibited 75% or greater inhibition of calcium ion influx induced by capsaicin stimulation)
COc1ccc(NC(=O)c2ccc(/C=C/C(F)(F)F)cc2)cn1 [Compound 406] | ++ (compound exhibited 25-50% inhibition of calcium ion influx induced by capsaicin stimulation)
CC(C)(C)C#Cc1ccc(C(=O)Nc2cccc(S(C)(=O)=O)c2)cn1 [Compound 411] | ++++ (compound exhibited 75% or greater inhibition of calcium ion influx induced by capsaicin stimulation)
CC(C)(C)C#Cc1ccc(C(=O)Nc2cccc(S(C)(=O)=O)c2)cc1 [Compound 412] | ++++ (compound exhibited 75% or greater inhibition of calcium ion influx induced by capsaicin stimulation)
CCN(CC)CCOC(=O)c1ccc(NC(=O)c2ccc(C#CC(C)(C)C)nc2)cc1 [Compound 413] | + (compound exhibited 0-25% inhibition of calcium ion influx induced by capsaicin stimulation)
COc1cccc(NC(=O)c2ccc(C#CC(C)(C)C)nc2)c1 [Compound 414] | ++++ (compound exhibited 75% or greater inhibition of calcium ion influx induced by capsaicin stimulation)
COc1ccc(NC(=O)c2ccc(C#CC(C)(C)C)nc2)cc1Cl [Compound 416] | ++ (compound exhibited 25-50% inhibition of calcium ion influx induced by capsaicin stimulation)

— patent US20050222200A1, “AMIDE DERIVATIVES AS ION CHANNEL LIGANDS AND PHARMACEUTICAL COMPOSITIONS AND METHODS OF USING THE SAME” (Renovis, Inc., priority 2003, published 2005)
